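1) Cells in 96-well plates. 2) Compound, 48 h, 5 concentrations. 3) Linear interpolation between surrounding doses. 4) Unreached endpoint = highest concentration. GI50 is the concentration that inhibits growth by half.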 The source made the active and inactive calls. Cut-off read from the data, not from the text of the source: active = GI50 up to about 1.1 µM and inactive = higher.
Legend:
Experiment in all cases: NCI-60 cell line screen, 48 h
SNB-78 = test system: SNB-78
HOP-18 = test system: HOP-18
DLD-1 = test system: DLD-1
XF498 = test system: XF498
KM-20L2 = test system: KM-20L2
DMS-114 = test system: DMS-114
M19-MEL = test system: M19-MEL
LXFL 529 = test system: LXFL 529
RXF 631 = test system: RXF 631

SMILES | GI50 (SNB-78) | GI50 (HOP-18) | GI50 (DLD-1) | GI50 (XF498) | GI50 (KM-20L2) | GI50 (DMS-114) | GI50 (M19-MEL) | GI50 (LXFL 529) | GI50 (RXF 631)
CCCCCCCCCCCCCCCCCCOCC(COP(=O)([O-])OCC[N+](C)(C)C)OC (configuration not stated) [EDELFOSINE] | 19.3 µM (inactive) | 13.3 µM (inactive) | 5.09 µM (inactive) | 11.2 µM (inactive) | 2.9 µM (inactive) | 13.4 µM (inactive) | 4.58 µM (inactive) |  | 
O=C(Nc1ccn(CCOC(=O)c2ccccc2)c(=O)n1)c1ccccc1 | > 100 µM (inactive) | > 100 µM (inactive) |  |  | > 100 µM (inactive) | > 100 µM (inactive) | > 100 µM (inactive) | > 100 µM (inactive) | 
CC1OC(CC(=O)O)Cc2c(O)c3c(c(O)c21)C(=O)C=C(C1=CC(=O)c2c(O)c4c(c(O)c2C1=O)CC(CC(=O)O)OC4C)C3=O (configuration not stated) | 25.8 µM (inactive) | 22 µM (inactive) | 12.7 µM (inactive) | 17.5 µM (inactive) | 22.2 µM (inactive) | 15 µM (inactive) | 20.1 µM (inactive) | 8.81 µM (inactive) | 
O=C1C=C(Nc2ccc(Cl)cc2C(=O)c2ccccc2)c2ccccc2C1=O | > 100 µM (inactive) | > 100 µM (inactive) | > 100 µM (inactive) | > 100 µM (inactive) | > 100 µM (inactive) | > 100 µM (inactive) |  | > 100 µM (inactive) | > 100 µM (inactive)
CN1CCOC(c2ccccc2)O1 (configuration not stated) | > 100 µM (inactive) | > 100 µM (inactive) | > 100 µM (inactive) |  | > 100 µM (inactive) | > 100 µM (inactive) | > 100 µM (inactive) | > 100 µM (inactive) | > 100 µM (inactive)
COc1ccc2c(c1)C=C([N+](=O)[O-])C(C1OC(C)(C)OC1C1COC(C)(C)O1)O2 (configuration not stated) | 2.79 µM (inactive) | 24.7 µM (inactive) | 1.51 µM (inactive) | 11 µM (inactive) | 5.08 µM (inactive) | 2.88 µM (inactive) | 1.63 µM (inactive) | 3.81 µM (inactive) | 
COC(=O)/C(C)=C/[N+](=O)[O-] | 21.1 µM (inactive) | 18 µM (inactive) | 1.93 µM (inactive) | 14.3 µM (inactive) | 25 µM (inactive) | 18.2 µM (inactive) | 17.4 µM (inactive) | 14 µM (inactive) | 
O=C1CC2CC=C[C@H]3c4cc5c(cc4C(=O)N1C23)OCO5 (some centres not stated) | > 50 µM (inactive) |  | > 50 µM (inactive) |  | > 50 µM (inactive) | > 50 µM (inactive) | > 50 µM (inactive) | > 50 µM (inactive) | 
Nc1nc(N)c(-c2ccccc2)c(C(=O)Nc2ccc(Cl)c(Cl)c2)n1 | > 100 µM (inactive) | > 100 µM (inactive) | > 100 µM (inactive) |  | > 100 µM (inactive) | > 100 µM (inactive) | > 100 µM (inactive) | > 100 µM (inactive) | > 100 µM (inactive)
O=C(CCC(=O)Nc1cccc(Cl)c1)CC(=O)c1ccc(Cl)cc1 | > 100 µM (inactive) |  | > 10 µM (inactive) | > 100 µM (inactive) | > 100 µM (inactive) |  |  | > 100 µM (inactive) | > 100 µM (inactive)
O=C1c2ccccc2C(=O)c2sc(Nc3ccccc3Cl)nc21 | 13.9 µM (inactive) | 13.4 µM (inactive) | 4.68 µM (inactive) | 16 µM (inactive) | 20.7 µM (inactive) |  | 1.62 µM (inactive) | 2.27 µM (inactive) | 18 µM (inactive)
COc1cc(Br)c(CC2NCCc3cc(OC)c(OC)cc32)cc1OC (configuration not stated) | > 100 µM (inactive) |  | > 100 µM (inactive) | 11.7 µM (inactive) | 41.2 µM (inactive) |  | 95.7 µM (inactive) | 36.7 µM (inactive) | 
Cc1cccc(/C=N/C23CC4CC(CC(C4)C2)C3)c1 | > 100 µM (inactive) | > 100 µM (inactive) | > 100 µM (inactive) | > 100 µM (inactive) | > 100 µM (inactive) | > 100 µM (inactive) | > 100 µM (inactive) |  | 
CN(C)CCNc1ccc(CO)c2sc3ccc(O)cc3c(=O)c12 | 14.4 µM (inactive) | 12.9 µM (inactive) | 3.52 µM (inactive) | 4.92 µM (inactive) | 6.41 µM (inactive) | 0.681 µM (active) | 3.08 µM (inactive) | 4.88 µM (inactive) | 
O=c1ccc2ccccc2c2ccccc12 | 4.07 µM (inactive) | 3.52 µM (inactive) | 3.39 µM (inactive) |  | 1.94 µM (inactive) | 2.41 µM (inactive) | 3.15 µM (inactive) | 2.95 µM (inactive) | 
Cc1ccc(NC(=O)SCCC(=O)O)cc1 | > 100 µM (inactive) |  | > 100 µM (inactive) |  | > 100 µM (inactive) | > 100 µM (inactive) |  | > 100 µM (inactive) | > 100 µM (inactive)
O=c1c2ccccc2nc(-c2cccc(Cl)c2)n1NC1OC(CO)C(O)C(O)C1O (configuration not stated) | > 100 µM (inactive) | 50.8 µM (inactive) |  | > 100 µM (inactive) | > 100 µM (inactive) | > 100 µM (inactive) | > 100 µM (inactive) | > 100 µM (inactive) | > 100 µM (inactive)
COc1ccccc1NS(=O)(=O)c1cc(C(C)(C)C)ccc1OCCOc1ccc(C(C)(C)C)cc1S(=O)(=O)Nc1ccccc1OC | > 100 µM (inactive) | > 100 µM (inactive) | > 100 µM (inactive) |  |  | > 100 µM (inactive) | > 100 µM (inactive) |  | 
COc1ccc(C2CC(C)=Nc3c(O)nc(S)nc3N2)cc1 (configuration not stated) | 46.7 µM (inactive) | 62.7 µM (inactive) |  | 24.8 µM (inactive) | 16.7 µM (inactive) | 21 µM (inactive) | 16.9 µM (inactive) | 16.6 µM (inactive) | 25.6 µM (inactive)
Cc1cccc(NC(=O)C(=O)Cc2nc3ccccc3nc2O)c1C | > 100 µM (inactive) | > 100 µM (inactive) | > 100 µM (inactive) | > 100 µM (inactive) | > 100 µM (inactive) | > 100 µM (inactive) | > 100 µM (inactive) | > 100 µM (inactive) | 
CC[C@@H](C)[C@H]([C@H](CC(=O)N1CCC[C@@H]1[C@@H](OC)[C@H](C)C(=O)N[C@H](Cc1ccccc1)c1nccs1)OC)N(C)C(=O)[C@H](NC(=O)[C@@H](C(C)C)N(C)C)C(C)C | 0.00108 µM (active) | 0.00407 µM (active) | 0.000387 µM (active) |  | 6.79e-05 µM (active) | 0.000288 µM (active) | 0.000208 µM (active) | 0.000502 µM (active) | 0.000461 µM (active)
O=c1[nH]c(=O)n(C2CC(O)C(CO)O2)cc1C#Cc1ccc(C(F)(F)F)cc1 (configuration not stated) |  | > 100 µM (inactive) | > 100 µM (inactive) | > 100 µM (inactive) | > 100 µM (inactive) | > 100 µM (inactive) |  | > 100 µM (inactive) | > 100 µM (inactive)
COC(=O)N/N=C(/c1nc2ccc([N+](=O)[O-])cc2nc1O)C(O)c1ccc(OC)c(OC)c1 (configuration not stated) | 28.4 µM (inactive) | > 100 µM (inactive) | > 100 µM (inactive) | 59.2 µM (inactive) | > 100 µM (inactive) | 24.7 µM (inactive) | > 100 µM (inactive) | 87.1 µM (inactive) | 44.5 µM (inactive)
Nc1ccc(Cn2ccc3c4c(N)nc(N)nc4ccc32)cc1 | 7.35 µM (inactive) | 10.2 µM (inactive) | < 0.01 µM (active) | 1.5 µM (inactive) | < 0.01 µM (active) | < 0.01 µM (active) | 0.0834 µM (active) | 0.0119 µM (active) | 
CCOC(=O)[C@@]12C(C)=CC(=O)O[C@]1(C)C[C@H]2C#N | > 100 µM (inactive) | 15.4 µM (inactive) | > 100 µM (inactive) |  | > 100 µM (inactive) | > 100 µM (inactive) | > 100 µM (inactive) | > 100 µM (inactive) | 
C[C@]12CCC(=O)C=C1CC[C@@H]1C2CC[C@]2(C)Nc3[nH]ncc3CC12 (some centres not stated) | > 100 µM (inactive) |  | > 100 µM (inactive) | > 100 µM (inactive) | > 100 µM (inactive) | > 100 µM (inactive) | > 100 µM (inactive) | > 100 µM (inactive) | 
CN(C)CCN(C)CC1COC(C)(C)O1 (configuration not stated) | > 100 µM (inactive) | > 100 µM (inactive) | > 100 µM (inactive) | > 100 µM (inactive) | > 100 µM (inactive) |  | > 100 µM (inactive) | > 100 µM (inactive) | 
